# Columns and labels:
# [1] = system: U251 Glioblastoma cell line; assay: Cytotoxicity assay (MTT, 72 hours, daily administration) in U251; type: cell-based; details: Homo sapiens, U-251, read-out: % VIABILITY ± S.D.
# Excerpt: (§1) The combinations were effective in other human tumor cell lines and we tested in glioblastoma cell line and endometrial cancer cell Additional tests include data obtained from two independent experiments, six wells for dose.
# [2] = system: pancreatic adenocarcinoma associated genes; assay: TaqMan Array gene expression in PANC-1, normalized for GAPDH; details: 24 hs, CBD 3.8, MLT 200, AKBA 7.5 micrograms/ml
# Protocol: Total RNA from untreated or CBD, MLT, AKBA alone and in combination treated cell lines was extracted using Rneasy Mini kit (Qiagen, Milan, Italy). One microgram of total RNA from each sample was subjected to reverse transcription in a total volume of 20 μL using the High-Capacity cDNA Archive Kit (Applied Biosystem, Foster City, […], USA) according to the instructions. cDNAs were analyzed by qRT-PCR performed using an IQ5 Multicolor Real time PCR Detection system. Quantitative real-time gene expression was performed with the TaqMan® Array Human Pancreatic Adenocarcinoma 96-well Plate, containing 92 assays to pancreatic adenocarcinoma associated genes and 4 assays to candidate endogenous control genes, was purchased (Thermo Fisher, Grand Island, NY, USA) and used to evaluate the treatments in modulating PDAC-related genes (Table 1). Measurement of different housekeeping genes (GAPDH; HPRT1; GUSB) on the samples was used to normalize mRNA content. The gene expression levels of treated cell lines were expressed as relative fold compared with untreated or vehicle-treated cells.
# To elucidate the molecular events induced by CBD, MLT and AKBA alone and in combination, 92 genes involved in PDAC progression and aggressiveness were evaluated by Taqman Array. Both cell lines were treated with CBD, MLT and AKBA alone and in combination, and the molecular pathways of PDAC associated gene were evaluated.
# Target mRNA levels were normalized for GAPDH expression.
# [3] = system: PCEM004a endometrial cancer cell line; assay: Cytotoxicity assay (MTT, 72 hours, daily administration) in PCEM004a; type: cell-based; details: Homo sapiens, read-out: % VIABILITY ± S.D.
# Excerpt: as §1
# PANC-1 cell line = assay: Cytotoxicity assay (MTT, 72 hours, daily administration) in PANC-1; details: Homo sapiens, PANC-1, read-out: % VIABILITY ± S.D.
# Protocol: Human pancreatic ductal adenocarcinoma (PANC-1 and MIAPaCa-2) cell lines were purchased by Sigma Aldrich (Milan, Italy) and cultured in DMEM high glucose medium (EuroClone, Milan, Italy) supplemented with 10% of fetal bovine serum (FBS), 2 mM L-glutamine, 100 IU/mL penicillin, 100 mg streptomycin and 1 mM sodium pyruvate. Cell lines were maintained at 37° C. with 5% CO2 and 95% of humidity.
# 3×10^4 cells/mL were seeded in 96-well plates in a final volume of 100 L/well. After one day of incubation, compounds or vehicles, alone or in combination, were added and six replicates were used for each treatment and all experiments were repeated three times. In all the experiments, the treatment was daily added, after washing with fresh medium. After 72 hours cell viability was investigated by adding 0.8 mg/mL of 3-[4,5-dimethylthiazol-2-yl]-2,5 diphenyl tetrazolium bromide (MTT) (Sigma Aldrich) to the media. After 3 h the supernatant was removed, and the pellet of salt crystals was solubilized with 100 μL/well of DMSO. The absorbance of the sample against a background control was measured at 570 nm using an ELISA reader microliter plate (BioTek Instruments, Winooski, VT, USA).
# Cytotoxicity in PDAC cell lines: The effect of CBD, MLT and AKBA in reducing cell viability was evaluated at 72 hours, post daily administration, in PDAC cell lines. Cells were treated with different doses of CBD, MLT and AKBA (up to 1 mg) and percentage of cell viability was evaluated by the MTT assay. […] The compounds were administered daily for 72 hours, as in previous experiments at the desired doses. […] MTT assay was used to analyse the cell cytotoxicity.
smiles,measurement,setting,value
"C=C(C)[C@@H]1CCC(C)=C[C@H]1c1c(O)cc(CCCCC)cc1O [CBD, 2-[(1R,6R)-3-methyl-6-prop-1-en-2-ylcyclohex-2-en-1-yl]-5-pentylbenzene-1,3-diol]",viability at 1.9 µg/mL,[1]; CBD 1.9 micrograms/ml,100 ± 7.1%
same,viability at 3.8 µg/mL,[1]; CBD 3.8 micrograms/ml,100 ± 5.5%
same,viability at 7.6 µg/mL,[1]; CBD 7.6 micrograms/ml,97 ± 10.1%
same,viability at 15.2 µg/mL,[1]; CBD 15.2 micrograms/ml,65.2 ± 4.3%
same,AKT3 mRNA relative expression,[2]; VEI 0.00,0.00
same,ARHGEF7 mRNA relative expression,[2]; VEI 0.00,0.00
same,BCL2 mRNA relative expression,[2]; VEI 0.00,0.00
same,CCND2 mRNA relative expression,[2]; VEI 0.00,0.00
same,CDKN2B mRNA relative expression,[2]; VEI 0.00,0.35
same,CYP2E1 mRNA relative expression,[2]; VEI 0.00,0.00
same,EGF mRNA relative expression,[2]; VEI 0.00,0.00
same,IGF1 mRNA relative expression,[2]; VEI 0.00,0.00
same,IL6 mRNA relative expression,[2]; VEI 0.00,0.00
same,KDR mRNA relative expression,[2]; VEI 0.00,0.00
same,KIT mRNA relative expression,[2]; VEI 0.00,0.00
same,MAPK3 mRNA relative expression,[2]; VEI 0.00,0.01
same,MMP1 mRNA relative expression,[2]; VEI 0.00,0.00
same,MMP3 mRNA relative expression,[2]; VEI 0.00,0.00
same,TGFA mRNA relative expression,[2]; VEI 0.00,0.71
same,TGFB2 mRNA relative expression,[2]; VEI 0.00,0.08
same,JAK2 mRNA relative expression,[2]; VEI 0.01,0.01
same,JAK3 mRNA relative expression,[2]; VEI 0.01,0.01
same,MMP7 mRNA relative expression,[2]; VEI 0.01,0.01
same,MMP9 mRNA relative expression,[2]; VEI 0.01,0.01
same,PK3CA mRNA relative expression,[2]; VEI 0.01,0.02
same,RAC2 mRNA relative expression,[2]; VEI 0.01,0.01
same,RB1 mRNA relative expression,[2]; VEI 0.01,0.05
same,TGFB3 mRNA relative expression,[2]; VEI 0.01,0.00
same,TGFBR1 mRNA relative expression,[2]; VEI 0.02,0.03
same,BRCA2 mRNA relative expression,[2]; VEI 0.03,0.13
same,CDKN2D mRNA relative expression,[2]; VEI 0.03,0.03
same,MDM2 mRNA relative expression,[2]; VEI 0.03,0.04
same,RHOB mRNA relative expression,[2]; VEI 0.03,0.03
same,CDKN2C mRNA relative expression,[2]; VEI 0.04,0.03
same,PK3R1 mRNA relative expression,[2]; VEI 0.04,0.03
same,PTGS2 mRNA relative expression,[2]; VEI 0.04,0.00
same,STATSB mRNA relative expression,[2]; VEI 0.04,0.03
same,MAPK1 mRNA relative expression,[2]; VEI 0.05,0.06
same,SMAD2 mRNA relative expression,[2]; VEI 0.05,0.06
same,CCND1 mRNA relative expression,[2]; VEI 0.06,0.09
same,MAP2K2 mRNA relative expression,[2]; VEI 0.06,0.07
same,PK3CD mRNA relative expression,[2]; VEI 0.06,0.07
same,TGFBR2 mRNA relative expression,[2]; VEI 0.06,0.01
same,VEGFA mRNA relative expression,[2]; VEI 0.06,0.03
same,VEGFB mRNA relative expression,[2]; VEI 0.06,0.07
same,CCNA2 mRNA relative expression,[2]; VEI 0.07,0.01
same,CCNE2 mRNA relative expression,[2]; VEI 0.07,0.10
same,EZF3 mRNA relative expression,[2]; VEI 0.07,0.07
same,SMAD4 mRNA relative expression,[2]; VEI 0.07,0.07
same,SOS1 mRNA relative expression,[2]; VEI 0.07,0.06
same,TGFB1 mRNA relative expression,[2]; VEI 0.07,0.07
same,MAP2K1 mRNA relative expression,[2]; VEI 0.08,0.00
same,MMP2 mRNA relative expression,[2]; VEI 0.08,0.06
same,VEGFC mRNA relative expression,[2]; VEI 0.08,0.03
same,CCNE1 mRNA relative expression,[2]; VEI 0.09,0.08
same,CDK2 mRNA relative expression,[2]; VEI 0.09,0.13
same,KRAS mRNA relative expression,[2]; VEI 0.09,0.07
same,RAC1 mRNA relative expression,[2]; VEI 0.09,0.09
same,REL mRNA relative expression,[2]; VEI 0.09,0.10
same,STAT2 mRNA relative expression,[2]; VEI 0.09,0.03
same,CDKN1B mRNA relative expression,[2]; VEI 0.10,0.09
same,CDKN2A mRNA relative expression,[2]; VEI 0.10,0.22
same,RELA mRNA relative expression,[2]; VEI 0.10,0.06
same,AKT1 mRNA relative expression,[2]; VEI 0.11,0.09
same,PK3CB mRNA relative expression,[2]; VEI 0.11,0.08
same,FIGF mRNA relative expression,[2]; VEI 0.14,0.09
same,TP53 mRNA relative expression,[2]; VEI 0.14,0.24
same,EZF4 mRNA relative expression,[2]; VEI 0.16,0.16
same,NFKB2 mRNA relative expression,[2]; VEI 0.16,0.12
same,EZF1 mRNA relative expression,[2]; VEI 0.17,0.13
same,SMAD3 mRNA relative expression,[2]; VEI 0.17,0.16
same,STAT1 mRNA relative expression,[2]; VEI 0.18,0.10
same,BRAF mRNA relative expression,[2]; VEI 0.22,0.18
same,BIRC5 mRNA relative expression,[2]; VEI 0.23,0.09
same,JAK1 mRNA relative expression,[2]; VEI 0.23,0.22
same,CDK4 mRNA relative expression,[2]; VEI 0.24,0.21
same,EGFR mRNA relative expression,[2]; VEI 0.24,0.17
same,RAF1 mRNA relative expression,[2]; VEI 0.25,0.01
same,CCNB1 mRNA relative expression,[2]; VEI 0.27,0.31
same,ERBB2 mRNA relative expression,[2]; VEI 0.27,0.01
same,SRC mRNA relative expression,[2]; VEI 0.27,0.03
same,GRB2 mRNA relative expression,[2]; VEI 0.31,0.11
same,BCL2L1 mRNA relative expression,[2]; VEI 0.35,0.21
same,HSP90AA1 mRNA relative expression,[2]; VEI 0.35,0.35
same,NFKB1 mRNA relative expression,[2]; VEI 0.35,0.04
same,RHOA mRNA relative expression,[2]; VEI 0.37,0.30
same,ELK1 mRNA relative expression,[2]; VEI 0.41,0.07
same,RELB mRNA relative expression,[2]; VEI 0.42,0.23
same,CDC42 mRNA relative expression,[2]; VEI 0.45,0.04
same,CDKN1A mRNA relative expression,[2]; VEI 0.49,0.03
same,AKT2 mRNA relative expression,[2]; VEI 0.50,0.45
same,HBEGF mRNA relative expression,[2]; VEI 0.53,0.11
same,NOTCH1 mRNA relative expression,[2]; VEI 1.03,0.02
same,STAT6 mRNA relative expression,[2]; VEI 1.38,0.87
same,STAT3 mRNA relative expression,[2]; VEI 4.45,0.05
same,viability at 1.9 µg/mL,[3]; CBD 1.9 micrograms/ml,74.8 ± 7.2%
same,viability at 3.8 µg/mL,[3]; CBD 3.8 micrograms/ml,93.2 ± 4.2%
same,viability at 7.6 µg/mL,[3]; CBD 7.6 micrograms/ml,93.4 ± 5.4%
same,viability at 15.2 µg/mL,[3]; CBD 15.2 micrograms/ml,50.4 ± 3.4%
same,viability at 1.9 µg/mL,PANC-1 cell line,86.5 ± 7.1%
same,viability at 3.8 µg/mL,PANC-1 cell line,66.4 ± 5.5%
same,viability at 7.6 µg/mL,PANC-1 cell line,13.1 ± 1.1%
same,viability at 15.2 µg/mL,PANC-1 cell line,7.9 ± 0.3%

# Reference: patent US20240180872A1, “METHODS AND COMPOUNDS OF CANNABIDIOL, MELATONIN AND AKBA FOR TREATING PANCREATIC CANCER” (priority 2021, published 2024)
